Experimental data as given in ChEMBL document CHEMBL1130917, “The design, synthesis, and structure-activity relationships of a series of macrocyclic MMP inhibitors” (Bioorg Med Chem Lett, 1998).

What was measured:
Interstitial collagenase = target: T1, Interstitial collagenase (Homo sapiens, UniProt P03956); experiment: Inhibition of fibroblast collagenase (MMP-1)
T1 sequence (P03956 whole entry): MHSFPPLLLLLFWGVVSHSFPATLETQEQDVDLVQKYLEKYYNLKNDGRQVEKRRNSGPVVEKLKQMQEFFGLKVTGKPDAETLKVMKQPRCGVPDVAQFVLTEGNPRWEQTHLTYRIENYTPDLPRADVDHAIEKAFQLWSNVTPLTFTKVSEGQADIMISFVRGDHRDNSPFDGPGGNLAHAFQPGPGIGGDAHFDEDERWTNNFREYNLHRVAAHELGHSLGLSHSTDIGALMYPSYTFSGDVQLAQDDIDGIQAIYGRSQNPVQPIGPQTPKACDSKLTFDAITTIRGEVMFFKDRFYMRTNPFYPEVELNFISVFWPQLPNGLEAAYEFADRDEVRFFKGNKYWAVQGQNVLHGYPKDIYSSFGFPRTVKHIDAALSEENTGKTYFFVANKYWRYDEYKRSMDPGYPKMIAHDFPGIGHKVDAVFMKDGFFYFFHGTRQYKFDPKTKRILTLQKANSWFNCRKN

[1] = target: 72 kDa type IV collagenase (Homo sapiens, UniProt P08253); experiment: Inhibition of fibroblast gelatinase A (MMP-2)
Matrilysin = target: T2, Matrilysin (Homo sapiens, UniProt P09237); experiment: Inhibition of fibroblast matrilysin (MMP-7)
T2 sequence (P09237 whole entry): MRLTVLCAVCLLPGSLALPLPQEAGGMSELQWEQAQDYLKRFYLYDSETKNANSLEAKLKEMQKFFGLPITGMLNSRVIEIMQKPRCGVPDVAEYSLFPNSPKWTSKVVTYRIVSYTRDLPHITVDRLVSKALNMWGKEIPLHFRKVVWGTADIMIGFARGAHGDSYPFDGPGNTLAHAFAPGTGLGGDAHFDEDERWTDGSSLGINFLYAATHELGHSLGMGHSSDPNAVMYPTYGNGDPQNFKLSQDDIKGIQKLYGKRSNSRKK

Stromelysin-1 = Stromelysin-1 (Homo sapiens, UniProt P08254); experiment: Inhibition of fibroblast stromelysin (MMP-3)
Stromelysin-1, sequence (P08254 whole entry): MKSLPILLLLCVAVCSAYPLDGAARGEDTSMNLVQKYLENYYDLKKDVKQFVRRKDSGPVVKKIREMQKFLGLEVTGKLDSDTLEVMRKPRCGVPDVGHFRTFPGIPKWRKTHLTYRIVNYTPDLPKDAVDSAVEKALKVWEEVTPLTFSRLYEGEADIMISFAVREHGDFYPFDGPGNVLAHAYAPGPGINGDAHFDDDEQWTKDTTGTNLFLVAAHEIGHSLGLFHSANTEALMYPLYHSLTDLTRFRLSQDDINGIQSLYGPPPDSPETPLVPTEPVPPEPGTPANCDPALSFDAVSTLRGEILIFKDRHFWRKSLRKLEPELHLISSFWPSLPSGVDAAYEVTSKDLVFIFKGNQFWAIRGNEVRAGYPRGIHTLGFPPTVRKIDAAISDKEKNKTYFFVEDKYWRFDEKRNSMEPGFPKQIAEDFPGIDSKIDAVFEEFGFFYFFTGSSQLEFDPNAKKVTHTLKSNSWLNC

72 kDa type IV collagenase, sequence (P08253 whole entry): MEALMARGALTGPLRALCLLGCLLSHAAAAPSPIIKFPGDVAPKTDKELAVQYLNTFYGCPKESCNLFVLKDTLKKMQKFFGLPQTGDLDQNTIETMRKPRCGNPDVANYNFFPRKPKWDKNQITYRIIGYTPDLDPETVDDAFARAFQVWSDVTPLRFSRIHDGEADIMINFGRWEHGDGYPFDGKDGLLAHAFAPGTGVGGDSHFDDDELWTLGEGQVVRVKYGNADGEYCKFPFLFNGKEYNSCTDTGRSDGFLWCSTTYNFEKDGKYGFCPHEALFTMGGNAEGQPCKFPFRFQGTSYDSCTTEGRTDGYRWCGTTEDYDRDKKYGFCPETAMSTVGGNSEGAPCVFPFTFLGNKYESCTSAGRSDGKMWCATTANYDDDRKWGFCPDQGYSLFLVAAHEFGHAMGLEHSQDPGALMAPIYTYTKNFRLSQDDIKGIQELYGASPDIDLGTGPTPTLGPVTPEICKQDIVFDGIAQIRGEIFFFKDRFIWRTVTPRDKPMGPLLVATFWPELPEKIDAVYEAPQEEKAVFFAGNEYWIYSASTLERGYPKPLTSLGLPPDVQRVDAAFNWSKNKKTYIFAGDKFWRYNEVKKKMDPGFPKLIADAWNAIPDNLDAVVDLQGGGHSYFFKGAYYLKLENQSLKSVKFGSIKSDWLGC

Structure (SMILES) | IC50 (Interstitial collagenase) [nM] | IC50 [1] [nM] | IC50 (Matrilysin) [nM] | IC50 (Stromelysin-1) [nM]
CNC(=O)[C@@H]1Cc2ccc(cc2)OCCCCC[C@H](C(=O)NO)[C@@H](CC(C)C)C(=O)N1 | 2.1 | 2.3 | 2.6 | –
CC(C)C[C@H]1C(=O)N[C@H](C(=O)Nc2ccccn2)Cc2ccc(cc2)OCCCC[C@@H]1C(=O)NO | 4.6 | 2.1 | 1.6 | –
CNC(=O)[C@@H]1Cc2ccc(cc2)OCCCCC[C@H](C(=O)O)[C@@H](CC(C)C)C(=O)N1 | 1400 | 1400 | 110 | 75
CNC(=O)[C@@H]1Cc2ccc(cc2)OCCC[C@H](C(=O)O)[C@@H](CC(C)C)C(=O)N1 | > 10000 | 14000 | 900 | –
CNC(=O)[C@@H]1Cc2ccc(cc2)OCCCCCC[C@H](C(=O)NO)[C@@H](CC(C)C)C(=O)N1 | 2.2 | 5.9 | 5.7 | –
CNC(=O)[C@@H]1Cc2ccc(cc2)OCCC[C@H](C(=O)NO)[C@@H](CC(C)C)C(=O)N1 | 3 | 2.6 | 3 | –
CNC(=O)[C@@H]1Cc2ccc(cc2)OCCCC[C@H](C(=O)NO)[C@@H](CCCCOCc2ccccc2)C(=O)N1 | 210 | 0.3 | 180 | 1.8

Second part, the compound after the results:

IC50 (Interstitial collagenase) [nM] | IC50 [1] [nM] | IC50 (Matrilysin) [nM] | IC50 (Stromelysin-1) [nM] | Structure (SMILES)
6.6 | 6.5 | 4.2 | 12 | CC(C)C[C@H]1C(=O)N[C@H](C(=O)NCCN(C)C)Cc2ccc(cc2)OCCCC[C@@H]1C(=O)NO
1.8 | 2.2 | 1.6 | – | CNC(=O)[C@@H]1Cc2ccc(cc2)OCCCC[C@H](C(=O)NO)[C@@H](CC(C)C)C(=O)N1
2.7 | 3.8 | 2.5 | 4.2 | CSCCNC(=O)[C@@H]1Cc2ccc(cc2)OCCCC[C@H](C(=O)NO)[C@@H](CC(C)C)C(=O)N1
110 | 230 | 440 | – | CNC(=O)[C@@H]1Cc2ccc(cc2)OCCCC[C@@H](C(=O)NO)[C@@H](CC(C)C)C(=O)N1
3 | 1.9 | 25 | – | CC(C)C[C@H]1C(=O)N[C@H](C(=O)NCCc2ccc(S(N)(=O)=O)cc2)Cc2ccc(cc2)OCCCC[C@@H]1C(=O)NO
54 | 0.1 | 5.9 | – | CCCc1ccc(CC[C@H]2C(=O)N[C@H](C(=O)NC)Cc3ccc(cc3)OCCCC[C@@H]2C(=O)NO)cc1
6.1 | 0.8 | 2.8 | 9.1 | CNC(=O)[C@@H]1Cc2ccc(cc2)OCCCC[C@H](C(=O)NO)[C@@H](CCCc2ccc(C)cc2)C(=O)N1
